From PMC11079024, “Identification of a family of species-selective complex I inhibitors as potential anthelmintics” (Nature Communications, 2024)
pIC50: −log10 of the molar value. Where “and” joins values, the source holds several entries; their conditions need not be identical. Equal values may be shown once. Read-outs that look alike come from different tables or passages of the source.

Experiments:
[1] = target: C. elegans (N2) complex I (NADH:ubiquinone oxidoreductase) (Caenorhabditis elegans, UniProt P24887+Q93873+Q94360); assay: biochemical; format: biochemical
Outline: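 Complex I rate: initial linear slope of A600 over 15 min, expressed as percent of solvent control. Triple freeze-thawed mitochondria (0.2 mg/mL) in KPi pH 7.5, BSA 3 mg/mL, NADH 80 μM, decylubiquinone 60 μM, DCIP 160 μM, antimycin A, KCN.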

[2] = in vitro; details: human, HEK293 Cell Viability Assay LC50, 2 days exposure
[3] = wild-type C. elegans mitochondria, mean of replicates, read-out: percent (%) in vitro complex I activity relative to solvent control
[4] = wild-type C. elegans mitochondria, single replicate, read-out: percent (%) in vitro complex I activity relative to solvent control
[5] = C. elegans, Mean of replicates, read-out: Complex I activity, dose-response data
[6] = C. elegans, individual replicates (Rep), read-out: Complex I activity, dose-response data

C. elegans (N2) complex I (NADH:ubiquinone oxidoreductase), sequence (Q94360 17-199): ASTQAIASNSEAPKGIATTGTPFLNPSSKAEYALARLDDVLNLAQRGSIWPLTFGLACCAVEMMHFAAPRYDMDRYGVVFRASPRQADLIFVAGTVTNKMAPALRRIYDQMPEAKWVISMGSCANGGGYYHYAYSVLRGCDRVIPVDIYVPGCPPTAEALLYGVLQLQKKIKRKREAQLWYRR
C. elegans (N2) complex I (NADH:ubiquinone oxidoreductase), sequence (P24887 whole entry): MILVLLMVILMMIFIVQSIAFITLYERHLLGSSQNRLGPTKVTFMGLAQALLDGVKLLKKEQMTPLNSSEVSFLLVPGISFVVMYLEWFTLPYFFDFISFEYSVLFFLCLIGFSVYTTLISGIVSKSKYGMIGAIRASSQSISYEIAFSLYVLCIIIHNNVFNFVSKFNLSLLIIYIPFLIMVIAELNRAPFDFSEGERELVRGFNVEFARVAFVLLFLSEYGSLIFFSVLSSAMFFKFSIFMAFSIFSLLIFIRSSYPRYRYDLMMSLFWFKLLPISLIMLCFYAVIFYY
C. elegans (N2) complex I (NADH:ubiquinone oxidoreductase), sequence (Q93873 31-482): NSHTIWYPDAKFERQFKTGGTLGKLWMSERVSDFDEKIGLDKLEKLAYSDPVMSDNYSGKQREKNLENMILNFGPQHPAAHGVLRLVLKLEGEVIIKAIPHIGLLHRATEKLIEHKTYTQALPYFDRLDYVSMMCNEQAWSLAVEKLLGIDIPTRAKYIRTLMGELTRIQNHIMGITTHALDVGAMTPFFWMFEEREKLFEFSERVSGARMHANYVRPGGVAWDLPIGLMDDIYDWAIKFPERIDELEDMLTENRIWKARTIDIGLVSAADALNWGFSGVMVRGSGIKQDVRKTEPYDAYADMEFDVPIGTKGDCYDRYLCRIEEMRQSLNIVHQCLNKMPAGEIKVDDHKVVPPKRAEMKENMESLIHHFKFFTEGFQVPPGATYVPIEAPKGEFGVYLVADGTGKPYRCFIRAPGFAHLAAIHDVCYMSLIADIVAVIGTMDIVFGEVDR

COc1cc2c(cc1OC)C(C(C)c1ccc(CC(C)C)cc1)=NCC2 (stereo not shown) [NPD10504]
remaining activity at 0.125 µM [1, 3]: 92.7%
remaining activity at 0.125 µM [1, 4]: 88.8%
remaining activity at 0.313 µM [1, 3]: 91.5%
remaining activity at 0.313 µM [1, 4]: 88.6%
remaining activity at 0.625 µM [1, 3]: 100%
remaining activity at 0.625 µM [1, 4]: 100%
remaining activity at 1.5 µM [1, 3]: 78.6%
remaining activity at 1.5 µM [1, 4]: 76.6%
remaining activity at 3 µM [1, 3]: 58.9%
remaining activity at 3 µM [1, 4]: 61.4%
remaining activity at 15 µM [1, 3]: 13.5%
remaining activity at 15 µM [1, 4]: 12.3%
remaining activity at 37.5 µM ([1]; 37.5 µM, wild-type C. elegans mitochondria, mean of replicates, read-out: percent (%) in vitro complex I activity relative to solvent control): 12.4%
remaining activity at 75 µM ([1]; 75 µM, wild-type C. elegans mitochondria, mean of replicates, read-out: percent (%) in vitro complex I activity relative to solvent control): 12.3%
activity at 100 µM ([1]; 100 µM compound, relative to solvent control, mean (SEM), read-out: % Activity Complex I): 4.22%
Percent in vitro activity, Complex I (single replicate Rep1-Rep4) ([1]; 100 μM of NPD compound, C. elegans mitochondria, individual biological replicates, 100 µM): 0.000% and 7.255% and 9.637%
activity at 100 µM ([1]; 100 μM of NPD compound, C. elegans mitochondria, mean of four biological replicates, read-out: Percent in vitro activity, Complex I (Mean)): 4.22%
activity at 0.0001 µM [1, 5]: 100%
activity at 0.0001 µM [1, 6]: 100%
activity at 0.0005 µM ([1]; C. elegans, dose 0.0005 µM, Mean of replicates, read-out: Complex I activity, dose-response data): 95.6%
Complex I activity, dose-response data ([1]; C. elegans, dose 0.0005 µM, individual replicates (Rep)): 99.245 and 96.022 and 93.047
activity at 0.0005 µM ([1]; C. elegans, dose 0.0005 µM, individual replicates (Rep), read-out: Complex I activity, dose-response data): 94%
activity at 0.001 µM ([1]; C. elegans, dose 0.001 µM, Mean of replicates, read-out: Complex I activity, dose-response data): 95.6%
Complex I activity, dose-response data ([1]; C. elegans, dose 0.001 µM, individual replicates (Rep)): 101.885 and 91.805 and 98.125
activity at 0.001 µM ([1]; C. elegans, dose 0.001 µM, individual replicates (Rep), read-out: Complex I activity, dose-response data): 90.6%
activity at 0.0025 µM ([1]; C. elegans, dose 0.0025 µM, Mean of replicates, read-out: Complex I activity, dose-response data): 95.4%
Complex I activity, dose-response data ([1]; C. elegans, dose 0.0025 µM, individual replicates (Rep)): 105.286 and 89.091 and 95.022
activity at 0.0025 µM ([1]; C. elegans, dose 0.0025 µM, individual replicates (Rep), read-out: Complex I activity, dose-response data): 92.2%
activity at 0.005 µM ([1]; C. elegans, dose 0.005 µM, Mean of replicates, read-out: Complex I activity, dose-response data): 93.5%
Complex I activity, dose-response data ([1]; C. elegans, dose 0.005 µM, individual replicates (Rep)): 100.896 and 97.608 and 92.236
activity at 0.005 µM ([1]; C. elegans, dose 0.005 µM, individual replicates (Rep), read-out: Complex I activity, dose-response data): 83.3%
activity at 0.013 µM ([1]; C. elegans, dose 0.013 µM, Mean of replicates, read-out: Complex I activity, dose-response data): 97.4%
Complex I activity, dose-response data ([1]; C. elegans, dose 0.013 µM, individual replicates (Rep)): 86.744 and 107.737 and 98.643 and 96.409
activity at 0.025 µM ([1]; C. elegans, dose 0.025 µM, Mean of replicates, read-out: Complex I activity, dose-response data): 99.6%
Complex I activity, dose-response data ([1]; C. elegans, dose 0.025 µM, individual replicates (Rep)): 81.492 and 104.774 and 100.771 and 111.289
activity at 0.063 µM ([1]; C. elegans, dose 0.063 µM, Mean of replicates, read-out: Complex I activity, dose-response data): 97%
Complex I activity, dose-response data ([1]; C. elegans, dose 0.063 µM, individual replicates (Rep)): 104.194 and 94.273 and 98.067
activity at 0.063 µM ([1]; C. elegans, dose 0.063 µM, individual replicates (Rep), read-out: Complex I activity, dose-response data): 91.6%
activity at 0.125 µM ([1]; C. elegans, dose 0.125 µM, Mean of replicates, read-out: Complex I activity, dose-response data): 92.7%
Complex I activity, dose-response data ([1]; C. elegans, dose 0.125 µM, individual replicates (Rep)): 100.304 and 94.360 and 87.363
activity at 0.125 µM ([1]; C. elegans, dose 0.125 µM, individual replicates (Rep), read-out: Complex I activity, dose-response data): 88.8%
activity at 0.313 µM ([1]; C. elegans, dose 0.313 µM, Mean of replicates, read-out: Complex I activity, dose-response data): 91.5%
Complex I activity, dose-response data ([1]; C. elegans, dose 0.313 µM, individual replicates (Rep)): 102.145 and 93.069 and 82.299
activity at 0.313 µM ([1]; C. elegans, dose 0.313 µM, individual replicates (Rep), read-out: Complex I activity, dose-response data): 88.6%
activity at 0.625 µM [1, 5]: 100%
activity at 0.625 µM [1, 6]: 100%
activity at 1.5 µM ([1]; C. elegans, dose 1.5 µM, Mean of replicates, read-out: Complex I activity, dose-response data): 78.6%
Complex I activity, dose-response data ([1]; C. elegans, dose 1.5 µM, individual replicates (Rep)): 84.112 and 75.755 and 78.095
activity at 1.5 µM ([1]; C. elegans, dose 1.5 µM, individual replicates (Rep), read-out: Complex I activity, dose-response data): 76.6%
activity at 3 µM ([1]; C. elegans, dose 3 µM, Mean of replicates, read-out: Complex I activity, dose-response data): 58.9%
Complex I activity, dose-response data ([1]; C. elegans, dose 3 µM, individual replicates (Rep)): 63.002 and 56.869 and 54.489
activity at 3 µM ([1]; C. elegans, dose 3 µM, individual replicates (Rep), read-out: Complex I activity, dose-response data): 61.4%
activity at 15 µM ([1]; C. elegans, dose 15 µM, Mean of replicates, read-out: Complex I activity, dose-response data): 13.5%
Complex I activity, dose-response data ([1]; C. elegans, dose 15 µM, individual replicates (Rep)): 13.403 and 18.209 and 10.130
activity at 15 µM ([1]; C. elegans, dose 15 µM, individual replicates (Rep), read-out: Complex I activity, dose-response data): 12.3%
activity at 37.5 µM ([1]; C. elegans, dose 37.5 µM, Mean of replicates, read-out: Complex I activity, dose-response data): 12.4%
Complex I activity, dose-response data ([1]; C. elegans, dose 37.5 µM, individual replicates (Rep)): 3.265 and 5.642 and 23.594 and 17.069
activity at 75 µM ([1]; C. elegans, dose 75 µM, Mean of replicates, read-out: Complex I activity, dose-response data): 12.3%
Complex I activity, dose-response data ([1]; C. elegans, dose 75 µM, individual replicates (Rep)): 2.370 and 3.939 and 26.690 and 16.321
pIC50 ([1]; wild-type (N2) mitochondria, read-out: C. elegans Complex I IC50): 5.48
CC50 at 2 days [2]: 36.6 µM
